Measured values: ChEMBL document CHEMBL3351493, “Beta-aminoketones as prodrugs for selective irreversible inhibitors of type-1 methionine aminopeptidases” (Bioorg Med Chem Lett, 2014)
Activity calls are given as the source filed them. No cut-off for these calls is given here.

Assays:
[1] = target: Methionine aminopeptidase (Staphylococcus aureus (strain COL), UniProt Q5HEN6); assay: Inhibition of N-terminal poly-His-tagged Staphylococcus aureus COL MetAP expressed in Escherichia coli BL21(DE3) incubated for 30 mins before MGMM substrate addition by fluorescence assay; set-up: species or system Staphylococcus aureus subsp. aureus COL
Escherichia coli = assay: Antimicrobial activity against Escherichia coli BL21(DE3) assessed as inhibition of bacterial growth at 200 uM incubated at 37 degC for 7 hrs; format: functional; conditions: for inhibition at 200 µM: BL21-DE3, 7 h
[2] = target: Methionine aminopeptidase 1 (Homo sapiens, UniProt P53582); assay: Inhibition of N-terminal poly-His-tagged human MetAP-1 expressed in Escherichia coli BL21(DE3) incubated for 30 mins before MGMM substrate addition by fluorescence assay
A-431 = assay: Cytotoxicity against human A431 cells at 1.6 to 100 ug/ml after 72 hrs by crystal violet assay; format: functional, cell-based
[3] = target: T1, Methionine aminopeptidase (Escherichia coli K-12, UniProt P0AE18); assay: Inhibition of C-terminal poly-His-tagged Escherichia coli MetAP expressed in Escherichia coli BL21(DE3) incubated for 30 mins before MGMM substrate addition by fluorescence assay
T1 sequence (P0AE18 whole entry): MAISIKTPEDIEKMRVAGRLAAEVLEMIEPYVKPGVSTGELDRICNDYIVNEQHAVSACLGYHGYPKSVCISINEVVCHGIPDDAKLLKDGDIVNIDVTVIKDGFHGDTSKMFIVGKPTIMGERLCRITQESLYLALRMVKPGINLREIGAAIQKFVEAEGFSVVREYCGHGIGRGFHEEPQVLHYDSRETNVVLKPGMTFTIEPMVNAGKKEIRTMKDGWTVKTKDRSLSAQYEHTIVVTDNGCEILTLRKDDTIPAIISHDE

BT-474 = assay: Cytotoxicity against human BT474 cells at 1.6 to 100 ug/ml after 72 hrs by crystal violet assay; format: functional, cell-based
[4] = Half life assessed as decomposition into amines and unsaturated ketones at 250 uM in 50 mM Tris/maleate pH 7.5 buffer by HPLC method; format: physicochemical; conditions: for half-life at 250 µM: Tris/maleate buffer, pH 7.5; for t1/2: buffer, pH 7.5, 250 µM
HaCaT = assay: Cytotoxicity against human HaCaT cells at 1.6 to 100 ug/ml after 72 hrs by crystal violet assay; format: cell-based
A 172 = assay: Cytotoxicity against human A172 cells at 1.6 to 100 ug/ml after 72 hrs by crystal violet assay; format: functional, cell-based
Ca-Ski = assay: Cytotoxicity against human CaSki cells at 1.6 to 100 ug/ml after 72 hrs by crystal violet assay; format: functional, cell-based
SW707 = assay: Cytotoxicity against human SW707 cells at 1.6 to 100 ug/ml after 72 hrs by crystal violet assay; format: functional, cell-based
MeWo = assay: Cytotoxicity against human MeWo cells at 1.6 to 100 ug/ml after 72 hrs by crystal violet assay; format: functional, cell-based
Calu-6 = assay: Cytotoxicity against human Calu6 cells at 1.6 to 100 ug/ml after 72 hrs by crystal violet assay; format: functional, cell-based
[5] = Cytotoxicity against human Flow 2002 cells at 1.6 to 100 ug/ml after 72 hrs by crystal violet assay; format: cell-based; conditions: flow 2002, 72 h
[6] = target: Methionine aminopeptidase 2 (Homo sapiens, UniProt P50579); conditions: sf9
Description: Inhibition of human MetAP-2 expressed in Sf9 cells incubated for 60 mins before MGMM substrate addition by fluorescence assay

CAPAN-1 = assay: Cytotoxicity against human Capan1 cells at 1.6 to 100 ug/ml after 72 hrs by crystal violet assay; format: functional, cell-based

Chain of Methionine aminopeptidase 2 (P50579 whole entry): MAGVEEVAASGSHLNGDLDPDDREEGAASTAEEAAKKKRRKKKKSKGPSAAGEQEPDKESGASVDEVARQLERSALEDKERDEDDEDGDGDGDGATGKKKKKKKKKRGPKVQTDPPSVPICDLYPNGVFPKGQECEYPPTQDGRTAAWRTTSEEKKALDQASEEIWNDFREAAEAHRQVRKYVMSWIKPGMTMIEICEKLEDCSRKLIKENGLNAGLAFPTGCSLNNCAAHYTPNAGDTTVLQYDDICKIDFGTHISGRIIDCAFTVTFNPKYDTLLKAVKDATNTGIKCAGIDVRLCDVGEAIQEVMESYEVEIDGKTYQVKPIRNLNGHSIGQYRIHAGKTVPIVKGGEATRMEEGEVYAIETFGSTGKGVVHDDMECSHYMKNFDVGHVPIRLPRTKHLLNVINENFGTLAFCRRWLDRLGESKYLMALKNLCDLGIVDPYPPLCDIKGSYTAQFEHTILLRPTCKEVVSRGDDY
Chain of Methionine aminopeptidase (Staphylococcus aureus (strain COL), UniProt Q5HEN6) (Q5HEN6 whole entry): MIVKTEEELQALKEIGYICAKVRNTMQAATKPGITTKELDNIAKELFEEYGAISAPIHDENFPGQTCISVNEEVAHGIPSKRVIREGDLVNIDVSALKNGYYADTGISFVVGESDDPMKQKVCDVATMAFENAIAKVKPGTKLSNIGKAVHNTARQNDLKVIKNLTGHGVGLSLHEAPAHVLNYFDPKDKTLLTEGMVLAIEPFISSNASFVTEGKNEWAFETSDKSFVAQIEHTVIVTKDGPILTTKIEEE

| Compound | IC50 [1] | inhibition at 200 µM (Escherichia coli) | IC50 [2] | Activity (A-431) | IC50 ([3]; read-out: IC50) | Activity (BT-474) | half-life at 250 µM [4] | Activity (HaCaT) | Activity (A 172) | Activity (Ca-Ski) | Activity (SW707) | Activity (MeWo) | Activity (Calu-6) | Activity [5] | IC50 [6] | Activity (CAPAN-1) | inhibition (Escherichia coli) | IC50 [3] | t1/2 [4] | IC50 ([1]; read-out: IC50) |
| --- | --- | --- | --- | --- | --- | --- | --- | --- | --- | --- | --- | --- | --- | --- | --- | --- | --- | --- | --- | --- |
| CN(C)CC1CCc2sccc2C1=O.Cl (centres undefined) | Not Active | 10% | Not Active | Active | 60.8 µM | Active | 116 h | Toxic | Active | Active | Active | Active | Active | Toxic | Not Active | Active |  |  |  |  |
| COc1cccc(C(=O)CCN(C)C)c1.Cl | Not Active |  | Not Active | Active |  | Active |  | Toxic | Active | Active | Active | Active | Active | Toxic | Not Active | Active | inactive | Not Active | Stable |  |
| C=C1Cc2cc(OC)c(OC)cc2C1=O |  | 25% | Not Active | Active | 0.7 µM | Active |  | Toxic | Active | Active | Active | Active | Active | Toxic | Not Active | Active |  |  |  | 18.9 µM |
| Cl.O=C1c2ccccc2CCC1CN1CCCCC1 (centres undefined) | Not Active | 28% | Not Active | Active | 9.1 µM | Active | 14.4 h | Toxic | Active | Active | Active | Active | Active | Toxic | Not Active | Active |  |  |  |  |
| Cl.O=C(CCN1CCCCC1)c1ccccc1 | Not Active |  | Not Active | Active |  | Active |  | Toxic | Active | Active | Active | Active | Active | Toxic | Not Active | Active | inactive | Not Active | Stable |  |
| COc1cccc(C(=O)CCN2CCCCC2)c1.Cl | Not Active |  | Not Active | Active |  | Active |  | Toxic | Active | Active | Active | Active | Active | Toxic | Not Active | Active | inactive | Not Active | Stable |  |
| COc1ccc(C(=O)CCN(C)C)cc1.Cl | Not Active |  | Not Active | Active |  | Active |  | Toxic | Active | Active | Active | Active | Active | Toxic | Not Active | Active | inactive | Not Active |  |  |
| COc1cc2c(cc1OC)C(=O)C(CN(C)C)C2.Cl (centres undefined) |  | 17% | Not Active | Active | 1.7 µM | Active | 0.933 h | Toxic | Active | Active | Active | Active | Active | Toxic | Not Active | Active |  |  |  | 18.9 µM |
| COc1ccc(C(=O)CCN2CCCCC2)cc1.Cl | Not Active |  | Not Active | Active |  | Active |  | Toxic | Active | Active | Active | Active | Active | Toxic | Not Active | Active | inactive | Not Active |  |  |
| Cc1cc(C)c2c(c1)C(=O)C(CN(C)C)CC2.Cl (centres undefined) | Not Active | 56% | Not Active | Active | 45.5 µM | Active | 14.4 h | Toxic | Active | Active | Active | Active | Active | Toxic | Not Active | Active |  |  |  |  |
| CN(C)CC1CCc2ccccc2C1=O.Cl (centres undefined) | Not Active | 68% | Not Active | Active | 8.4 µM | Active | 5.78 h | Toxic | Active | Active | Active | Active | Active | Toxic | Not Active | Active |  |  |  |  |
| COc1ccc2c(c1)C(=O)C(CN1CCCCC1)CC2.Cl (centres undefined) | Not Active | 30% | Not Active | Active | 3.7 µM | Active | 10.5 h | Toxic | Active | Active | Active | Active | Active | Toxic | Not Active | Active |  |  |  |  |
| CN(C)CCC(=O)c1ccccc1.Cl | Not Active |  | Not Active | Active |  | Active |  | Toxic | Active | Active | Active | Active | Active | Toxic | Not Active | Active | inactive | Not Active |  |  |
